Read-outs that look alike come from different tables or passages of the source.
Columns and labels:
[1] = tested on: Enterococcus faecium Patient #3-1 NR-31912; assay: MIC, broth microdilution in TSB; assay type: cell-based; conditions: TSB; for MIC: Enterococcus faecium
Protocol: (§1) The minimum inhibitory concentrations (MICs) of the compounds and control drugs were determined using the broth microdilution method, according to guidelines outlined by the Clinical and Laboratory Standards Institute (CLSI). Enterococci strains were grown aerobically overnight on tryptone soya agar plates at 37° C., afterwards a bacterial solution equivalent to 0.5 McFarland standard was prepared and diluted in tryptone soy broth (TSB) to achieve a bacterial concentration of about 5×10^5 CFU/mL and seeded in 96-well well plates. Compounds and control drugs were added in the first row of the 96-well plates and serially diluted along the plates. Plates were then incubated aerobically at 37° C. for 18-20 hours. MICs reported in Table 1 are the minimum concentration of the compounds/control drugs that could inhibit completely the visual growth of the bacteria.

[2] = tested on: Enterococcus fecalis Strain MMH594-NR31975; assay: MIC, broth microdilution in TSB; assay type: cell-based; conditions: TSB; for MIC: Enterococcus
Protocol: as §1

[3] = tested on: Enterococcus faecalis—S613 HM-334; assay: MIC, broth microdilution in TSB; assay type: cell-based; conditions: TSB; for MIC: Enterococcus
Protocol: as §1

[4] = tested on: Enterococcus fecalis Strain SF24413 NR31971; assay: MIC, broth microdilution in TSB; assay type: cell-based; conditions: TSB; for MIC: Enterococcus
Protocol: as §1

[5] = tested on: Enterococcus fecalis Strain SF 28073-NR31972; assay: MIC, broth microdilution in TSB; assay type: cell-based; conditions: TSB; for MIC: Enterococcus
Protocol: as §1

[6] = tested on: Enterococcus fecalis Strain SF 24397 NR31970; assay: MIC, broth microdilution in TSB; assay type: cell-based; conditions: TSB; for MIC: Enterococcus
Protocol: as §1

[7] = tested on: Enterococcus faecium E417-HM-965; assay: MIC, broth microdilution in TSB; assay type: cell-based; conditions: TSB; for MIC: Enterococcus faecium, E417HM965
Protocol: as §1

[8] = tested on: Enterococcus faecium Patient #2-1-NR-31909; assay: MIC, broth microdilution in TSB; assay type: cell-based; conditions: TSB; for MIC: Enterococcus faecium
Protocol: as §1

[9] = tested on: MRSA NRS 384 (MRSA USA300); assay: MIC against Staphylococci, broth microdilution; assay type: cell-based, Staphylococcus aureus; conditions: Staphylococcus aureus; TSB; read-out: MIC
Protocol: as §1, with “Institute (CLSI) 1. Staphylococci” for “Institute (CLSI). Enterococci”, “Table 2” for “Table 1”

[10] = tested on: Staphylococcus epidermidis NRS 101; assay: MIC against Staphylococci, broth microdilution; assay type: cell-based; conditions: Staphylococcus epidermidis, NRS101; TSB; read-out: MIC
Protocol: as §1, with “Institute (CLSI) 1. Staphylococci” for “Institute (CLSI). Enterococci”, “Table 2” for “Table 1”

[11] = tested on: Bifidobacterium breve—JCP7499 HIM 1120; assay: MIC against human normal gut microbiota; assay type: cell-based; conditions: Bifidobacterium; BHIS broth, anaerobic, 48 hours; read-out: MIC
Protocol: (§2) Three different bacterial strains were used in this experiment; Bifidobacterium (anaerobic Gram positive bacteria), Bacteroides (anaerobic Gram negative bacteria) and Lactobacillus (microaerophilic Gram positive bacteria). Bifidobacterium and Bacteroides were first grown for 48 hours at 37° C., anaerobically using brain heart infusion supplemented (BHIS) agar (Brain heart infusion agar supplemented with hemin, vitamin K and L-cysteine). Lactobacillus was cultivated on MRS agar and incubated in presence of 5% CO2 for 48 hours at 37° C. Each bacterium was suspended in phosphate buffered saline (PBS) to produce a suspension with optical density that matches 0.5 McFarland standard and diluted in brain heart infusion supplemented broth (for Bifidobacterium and Bacteroides) or in MRS broth (for Lactobacillus) to achieve bacterial concentration of approximately 5×10^5 CFU/ml. Bacteria were then seeded in 96-well plates containing serial dilutions of the compounds and incubated as mentioned previously for 48 hours.

[12] = tested on: Lactobacillus casei ATCC 334; assay: MIC against human normal gut microbiota; assay type: cell-based; conditions: Lacticaseibacillus casei, ATCC334; MRS broth, 5% CO2, 48 hours; read-out: MIC
Protocol: as §2

[13] = tested on: Bifidobacterium longum subsp. Longum—44B HM 845; assay: MIC against human normal gut microbiota; assay type: cell-based; conditions: Bifidobacterium longum; BHIS broth, anaerobic, 48 hours; read-out: MIC
Protocol: as §2

[14] = tested on: Bacteroides dorei—CL02T12C06 HM-719; assay: MIC against human normal gut microbiota; assay type: cell-based; conditions: Bacteroides; BHIS broth, anaerobic, 48 hours; read-out: MIC
Protocol: as §2

[15] = tested on: Lactobacillus gasseri EX336960VC03 HIM-400; assay: MIC against human normal gut microbiota; assay type: cell-based; conditions: Lactobacillus gasseri; MRS broth, 5% CO2, 48 hours; read-out: MIC
Protocol: as §2

[16] = tested on: Bacteroides fragilis—CL07T00C01 HIM-709; assay: MIC against human normal gut microbiota; assay type: cell-based; conditions: Bacteroides; BHIS broth, anaerobic, 48 hours; read-out: MIC
Protocol: as §2

3-cyclohexyl-N-(5-sulfamoyl-1,3,4-thiadiazol-2-yl) propenamide [CAI0019]
0.015 µg/mL: MIC in TSB ([2]; Table 7) | MIC in TSB ([4]; Table 7) | MIC in TSB ([5]; Table 7) | MIC in TSB ([6]; Table 7)
0.007 µg/mL: MIC in TSB ([1]; Table 7) | MIC in TSB ([3]; Table 7) | MIC in TSB ([7]; Table 7)
0.003 µg/mL: MIC in TSB ([8]; Table 7)

NS(=O)(=O)c1nnc(NCc2ccc(Cl)cc2)s1 [CAI0001, 5-((4-chlorobenzyl)amino)-1,3,4-thiadiazole-2-sulfonamide]
8 µg/mL: MIC ([8]; Table 7, read-out: MIC in TSB)
> 64 µg/mL: MIC ([1]; Table 7, read-out: MIC in TSB) | MIC ([5]; Table 7, read-out: MIC in TSB) | MIC ([7]; Table 7, read-out: MIC in TSB)

NS(=O)(=O)c1nnc(NCc2ccccc2Cl)s1 [CAI0002, 5-((2-chlorobenzyl)amino)-1,3,4-thiadiazole-2-sulfonamide]
> 64 µg/mL: MIC ([1]; Table 7, read-out: MIC in TSB) | MIC ([5]; Table 7, read-out: MIC in TSB) | MIC ([7]; Table 7, read-out: MIC in TSB) | MIC ([8]; Table 7, read-out: MIC in TSB)

NS(=O)(=O)c1nnc(NCc2ccc(Br)cc2)s1 [CAI0003, 5-((4-bromobenzyl)amino)-1,3,4-thiadiazole-2-sulfonamide]
> 64 µg/mL: MIC ([1]; Table 7, read-out: MIC in TSB) | MIC ([5]; Table 7, read-out: MIC in TSB) | MIC ([7]; Table 7, read-out: MIC in TSB) | MIC ([8]; Table 7, read-out: MIC in TSB)

NS(=O)(=O)c1nnc(NCc2cccc(Br)c2)s1 [CAI0004, 5-((3-bromobenzyl)amino)-1,3,4-thiadiazole-2-sulfonamide]
16 µg/mL: MIC ([7]; Table 7, read-out: MIC in TSB)
8 µg/mL: MIC ([1]; Table 7, read-out: MIC in TSB) | MIC ([5]; Table 7, read-out: MIC in TSB) | MIC ([8]; Table 7, read-out: MIC in TSB)

NS(=O)(=O)c1nnc(NCc2ccccc2)s1 [CAI0005, 5-(benzylamino)-1,3,4-thiadiazole-2-sulfonamide]
> 64 µg/mL: MIC ([5]; Table 7, read-out: MIC in TSB) | MIC ([7]; Table 7, read-out: MIC in TSB) | MIC ([8]; Table 7, read-out: MIC in TSB)

NS(=O)(=O)c1nnc(NCc2ccccc2C(F)(F)F)s1 [CAI0006, 5-((2-(trifluoromethyl)benzyl)amino)-1,3,4-thiadiazole-2-sulfonamide]
> 64 µg/mL: MIC ([5]; Table 7, read-out: MIC in TSB) | MIC ([7]; Table 7, read-out: MIC in TSB) | MIC ([8]; Table 7, read-out: MIC in TSB)

NS(=O)(=O)c1nnc(NCc2cccc(C(F)(F)F)c2)s1 [CAI0007, 5-((3-(trifluoromethyl)benzyl)amino)-1,3,4-thiadiazole-2-sulfonamide]
4 µg/mL: MIC ([5]; Table 7, read-out: MIC in TSB)
8 µg/mL: MIC ([1]; Table 7, read-out: MIC in TSB) | MIC ([7]; Table 7, read-out: MIC in TSB) | MIC ([8]; Table 7, read-out: MIC in TSB)

NS(=O)(=O)c1nnc(NCc2ccc(C(F)(F)F)cc2)s1 [CAI0008, 5-((4-(trifluoromethyl)benzyl)amino)-1,3,4-thiadiazole-2-sulfonamide]
> 64 µg/mL: MIC ([1]; Table 7, read-out: MIC in TSB) | MIC ([5]; Table 7, read-out: MIC in TSB) | MIC ([7]; Table 7, read-out: MIC in TSB) | MIC ([8]; Table 7, read-out: MIC in TSB)

CCC(=O)Nc1nnc(S(N)(=O)=O)s1 [CAI0009, N-(5-Sulfamoyl-1,3,4-thiadiazol-2-yl) propionamide]
> 64 µg/mL: MIC [9] | MIC [10] | MIC [11] | MIC [12] | MIC [13] | MIC [14] | MIC [15] | MIC [16]
1 µg/mL: MIC ([1]; Table 1, read-out: MIC) | MIC ([1]; Table 7, read-out: MIC in TSB) | MIC ([7]; Table 1, read-out: MIC) | MIC ([7]; Table 7, read-out: MIC in TSB) | MIC ([8]; Table 1, read-out: MIC) | MIC ([8]; Table 7, read-out: MIC in TSB)
4 µg/mL: MIC ([4]; Table 1, read-out: MIC) | MIC ([4]; Table 7, read-out: MIC in TSB) | MIC ([5]; Table 1, read-out: MIC) | MIC ([5]; Table 7, read-out: MIC in TSB) | MIC ([6]; Table 1, read-out: MIC) | MIC ([6]; Table 7, read-out: MIC in TSB)
2 µg/mL: MIC ([2]; Table 1, read-out: MIC) | MIC ([2]; Table 7, read-out: MIC in TSB) | MIC ([3]; Table 1, read-out: MIC) | MIC ([3]; Table 7, read-out: MIC in TSB)

Reference: patent US12378211B2, “Carbonic anhydrase inhibitors and antibiotics against multidrug resistant bacteria” (Purdue Research Foundation, priority 2018, dated 2025)
